Consider 28 compounds from ChEMBL document CHEMBL4828767, “Identification of Clinical Candidate M2698, a Dual p70S6K and Akt Inhibitor, for Treatment of PAM Pathway-Altered Cancers” (J Med Chem, 2021).

The target in data set [1] is Ribosomal protein S6 kinase beta-1 (Homo sapiens, UniProt P23443, T412E). In kind it is cell-based, Sf21.
For data set [2], the target named is RAC-alpha serine/threonine-protein kinase (Homo sapiens, UniProt P31749).
The nature of a further data set: cells. It is filed as cell-based. Particulars: Homo sapiens, MDA-MB-468.
The next data set deals with Cytochrome P450 2C9 (Homo sapiens, UniProt P11712).
Sequence of Cytochrome P450 2C9 (P11712 whole entry): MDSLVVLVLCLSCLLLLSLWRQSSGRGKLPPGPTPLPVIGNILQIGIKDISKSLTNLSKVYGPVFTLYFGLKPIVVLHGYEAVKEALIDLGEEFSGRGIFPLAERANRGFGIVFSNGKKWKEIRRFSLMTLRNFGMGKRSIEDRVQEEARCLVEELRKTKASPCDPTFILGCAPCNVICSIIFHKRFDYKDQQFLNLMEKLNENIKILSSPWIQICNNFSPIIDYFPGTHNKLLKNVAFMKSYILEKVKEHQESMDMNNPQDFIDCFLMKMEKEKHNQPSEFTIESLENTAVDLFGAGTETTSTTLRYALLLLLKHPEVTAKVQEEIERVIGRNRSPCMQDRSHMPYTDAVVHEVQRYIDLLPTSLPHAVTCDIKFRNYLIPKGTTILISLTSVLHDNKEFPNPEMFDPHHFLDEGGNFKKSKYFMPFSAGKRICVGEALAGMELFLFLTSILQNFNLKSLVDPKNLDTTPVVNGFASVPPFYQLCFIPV
Data set [3] can be described thus: in vivo. As to conditions: mouse.
The conditions of data set [4]: rat, microsomes.
Description: Intrinsic clearance in rat microsomes
Data set [5] can be described thus: in vitro. Particulars: mouse, plasma.
Description: Protein binding in mouse plasma assessed as unbound fraction
The conditions of data set [6]: human, microsomes.
Description: Intrinsic clearance in human microsomes
Another data set addresses hERG (KCNH2) (Homo sapiens, UniProt Q12809). As to the kind of experiment: in vitro.
A short description of data set [7]: in vitro. Particulars: human, plasma.
Description: Protein binding in human plasma assessed as unbound fraction
For a further data set, the system named is MDA-MB-468. Nature of the data set: cells. In kind it is functional, cell-based. As to conditions: Homo sapiens, MDA-MB-468, 96 h.
The conditions of data set [8]: mouse, microsomes.
Description: Intrinsic clearance in mouse microsomes
Data set [9] addresses Aurora kinase B/Inner centromere protein (Homo sapiens, UniProt Q96GD4). Nature of the data set: biochemical. It is filed as cell-based, Sf21.
The conditions of data set [10]: buffer, pH 7.4.
Description: Thermodynamic solubility of compound at pH 7.4
Data set [11] in a line: in vitro. Particulars: human, Caco-2.
Data set [12] is described as follows: in vitro. As to conditions: rat, plasma.
Description: Protein binding in rat plasma assessed as unbound fraction
A short description of data set [13]: in vivo. Particulars: mouse. This is another data set of the same source.
Data set [14] can be described thus: in vivo. Particulars: mouse, po.
Description: Oral bioavailability in mouse
A short description of data set [15]: in vivo. Particulars: cynomolgus monkey.
Description: Clearance in cynomolgus monkey
Data set [16] is described as follows: in vitro. Particulars: human, Caco-2. The source holds these as a separate data set.
Data set [17] can be described thus: in vivo. As to conditions: mouse. The source holds these as a separate data set.
Description: Volume of distribution at steady state in mouse
Data set [18] can be described thus: in vivo. Particulars: dog.
Data set [19] in a line: in vivo. As to conditions: rat.
Data set [20] is described as follows: in vivo. Particulars: rat. This is another data set of the same source.
Description: Volume of distribution at steady state in rat
Data set [21] in a line: in vivo. As to conditions: dog. The source holds these as a separate data set.
Description: Volume of distribution at steady state in dog
Data set [22] is described as follows: in vivo. Particulars: cynomolgus monkey, po.
Description: Oral bioavailability in cynomolgus monkey
Data set [23] can be described thus: in vivo. As to conditions: rat. The source holds these as a separate data set.
Data set [24] is described as follows: in vivo. As to conditions: cynomolgus monkey. The source holds these as a separate data set.
Description: Volume of distribution at steady state in cynomolgus monkey
Data set [25] is described as follows: in vivo. As to conditions: cynomolgus monkey. This is another data set of the same source.
Description: Half life in cynomolgus monkey
A short description of data set [26]: in vivo. As to conditions: dog, po.
Description: Oral bioavailability in dog
Data set [27] can be described thus: in vivo. As to conditions: rat, po.
Description: Oral bioavailability in rat
Data set [28] in a line: in vivo. As to conditions: dog. The source holds these as a separate data set.
The nature of another data set: physchem. As to conditions: octanol/water.

The IC50 is the concentration that inhibits the measured activity by half. By clearance is commonly meant a measure of how efficiently the substance is removed, as volume per time. A word on the fraction unbound: it is free concentration divided by total concentration. Usually inhibition stands for how much of the control response was suppressed. The Papp A→B is the apparent permeability from the apical to the basolateral side of a cell layer. As a reminder, the half-life is the time needed for the level to fall by half in the phase considered. Usually bioavailability stands for the share of a dose that reaches the circulation, judged against a reference dose that is usually intravenous. The term efflux ratio denotes the permeability from basolateral to apical divided by that in the opposite direction, in the common usage. In general, Vd refers to a proportionality between amount in the body and measured concentration, not a real space. The term logP denotes a log measure of how a compound divides between an organic and an aqueous phase.

Sequence of Ribosomal protein S6 kinase beta-1 (P23443 whole entry T412E): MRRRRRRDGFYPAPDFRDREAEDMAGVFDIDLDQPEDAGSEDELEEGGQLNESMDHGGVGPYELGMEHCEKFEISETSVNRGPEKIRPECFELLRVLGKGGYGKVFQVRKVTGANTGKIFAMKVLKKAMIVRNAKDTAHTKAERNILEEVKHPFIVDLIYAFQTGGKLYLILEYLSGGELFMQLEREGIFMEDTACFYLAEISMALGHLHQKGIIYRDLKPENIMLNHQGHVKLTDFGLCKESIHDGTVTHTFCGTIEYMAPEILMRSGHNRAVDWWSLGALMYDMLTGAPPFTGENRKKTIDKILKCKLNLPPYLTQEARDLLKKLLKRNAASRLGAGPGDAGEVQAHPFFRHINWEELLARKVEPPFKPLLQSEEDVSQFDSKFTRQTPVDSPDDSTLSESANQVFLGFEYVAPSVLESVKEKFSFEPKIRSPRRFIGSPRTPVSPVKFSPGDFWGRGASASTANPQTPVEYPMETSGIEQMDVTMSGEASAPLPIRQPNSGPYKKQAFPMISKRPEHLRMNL
Sequence of RAC-alpha serine/threonine-protein kinase (P31749 whole entry): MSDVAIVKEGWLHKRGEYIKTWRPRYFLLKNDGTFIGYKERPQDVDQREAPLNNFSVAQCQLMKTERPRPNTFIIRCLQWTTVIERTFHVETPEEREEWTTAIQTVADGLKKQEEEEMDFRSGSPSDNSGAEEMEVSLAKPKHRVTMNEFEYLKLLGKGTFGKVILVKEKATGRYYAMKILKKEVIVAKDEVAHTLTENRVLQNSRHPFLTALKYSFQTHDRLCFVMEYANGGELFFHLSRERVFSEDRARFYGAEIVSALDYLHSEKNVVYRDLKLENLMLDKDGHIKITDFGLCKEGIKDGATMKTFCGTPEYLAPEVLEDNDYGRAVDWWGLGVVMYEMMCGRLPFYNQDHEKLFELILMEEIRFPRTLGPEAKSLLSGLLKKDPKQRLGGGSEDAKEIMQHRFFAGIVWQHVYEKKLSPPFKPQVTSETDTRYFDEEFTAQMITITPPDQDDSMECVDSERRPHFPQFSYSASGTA
Sequence of Aurora kinase B/Inner centromere protein (Q96GD4 whole entry): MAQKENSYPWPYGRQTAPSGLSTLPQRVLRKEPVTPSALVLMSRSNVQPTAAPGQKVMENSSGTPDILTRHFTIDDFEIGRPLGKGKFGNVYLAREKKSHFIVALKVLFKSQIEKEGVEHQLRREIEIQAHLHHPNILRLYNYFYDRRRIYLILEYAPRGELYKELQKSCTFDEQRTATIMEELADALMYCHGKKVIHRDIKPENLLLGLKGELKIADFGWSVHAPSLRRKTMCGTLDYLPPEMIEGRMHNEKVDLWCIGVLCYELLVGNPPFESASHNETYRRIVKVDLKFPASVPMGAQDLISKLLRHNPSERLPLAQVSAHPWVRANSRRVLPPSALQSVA
Sequence of Aurora kinase B/Inner centromere protein (Q9NQS7 whole entry, further chain): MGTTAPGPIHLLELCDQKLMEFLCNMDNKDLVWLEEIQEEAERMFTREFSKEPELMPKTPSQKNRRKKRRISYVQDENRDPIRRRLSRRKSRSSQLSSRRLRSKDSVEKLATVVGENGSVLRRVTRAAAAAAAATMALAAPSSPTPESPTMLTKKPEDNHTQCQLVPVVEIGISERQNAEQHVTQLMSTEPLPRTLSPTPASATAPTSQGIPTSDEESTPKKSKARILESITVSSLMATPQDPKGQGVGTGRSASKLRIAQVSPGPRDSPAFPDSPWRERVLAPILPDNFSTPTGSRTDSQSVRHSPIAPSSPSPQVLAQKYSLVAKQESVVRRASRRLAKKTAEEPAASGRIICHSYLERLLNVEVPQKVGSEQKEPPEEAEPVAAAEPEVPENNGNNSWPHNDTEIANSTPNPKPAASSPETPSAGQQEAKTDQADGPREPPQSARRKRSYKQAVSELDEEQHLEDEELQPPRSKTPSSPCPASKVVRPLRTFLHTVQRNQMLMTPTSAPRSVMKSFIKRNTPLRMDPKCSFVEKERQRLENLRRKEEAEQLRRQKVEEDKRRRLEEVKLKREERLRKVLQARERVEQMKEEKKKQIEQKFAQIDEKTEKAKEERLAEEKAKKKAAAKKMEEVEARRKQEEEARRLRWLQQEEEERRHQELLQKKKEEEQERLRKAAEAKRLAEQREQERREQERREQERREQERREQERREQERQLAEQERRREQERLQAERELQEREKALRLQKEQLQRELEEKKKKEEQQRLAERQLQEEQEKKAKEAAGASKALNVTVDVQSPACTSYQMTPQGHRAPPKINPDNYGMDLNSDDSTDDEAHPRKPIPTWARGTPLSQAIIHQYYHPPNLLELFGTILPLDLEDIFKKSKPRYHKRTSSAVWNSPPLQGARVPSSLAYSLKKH
Sequence of hERG (KCNH2) (Q12809 whole entry): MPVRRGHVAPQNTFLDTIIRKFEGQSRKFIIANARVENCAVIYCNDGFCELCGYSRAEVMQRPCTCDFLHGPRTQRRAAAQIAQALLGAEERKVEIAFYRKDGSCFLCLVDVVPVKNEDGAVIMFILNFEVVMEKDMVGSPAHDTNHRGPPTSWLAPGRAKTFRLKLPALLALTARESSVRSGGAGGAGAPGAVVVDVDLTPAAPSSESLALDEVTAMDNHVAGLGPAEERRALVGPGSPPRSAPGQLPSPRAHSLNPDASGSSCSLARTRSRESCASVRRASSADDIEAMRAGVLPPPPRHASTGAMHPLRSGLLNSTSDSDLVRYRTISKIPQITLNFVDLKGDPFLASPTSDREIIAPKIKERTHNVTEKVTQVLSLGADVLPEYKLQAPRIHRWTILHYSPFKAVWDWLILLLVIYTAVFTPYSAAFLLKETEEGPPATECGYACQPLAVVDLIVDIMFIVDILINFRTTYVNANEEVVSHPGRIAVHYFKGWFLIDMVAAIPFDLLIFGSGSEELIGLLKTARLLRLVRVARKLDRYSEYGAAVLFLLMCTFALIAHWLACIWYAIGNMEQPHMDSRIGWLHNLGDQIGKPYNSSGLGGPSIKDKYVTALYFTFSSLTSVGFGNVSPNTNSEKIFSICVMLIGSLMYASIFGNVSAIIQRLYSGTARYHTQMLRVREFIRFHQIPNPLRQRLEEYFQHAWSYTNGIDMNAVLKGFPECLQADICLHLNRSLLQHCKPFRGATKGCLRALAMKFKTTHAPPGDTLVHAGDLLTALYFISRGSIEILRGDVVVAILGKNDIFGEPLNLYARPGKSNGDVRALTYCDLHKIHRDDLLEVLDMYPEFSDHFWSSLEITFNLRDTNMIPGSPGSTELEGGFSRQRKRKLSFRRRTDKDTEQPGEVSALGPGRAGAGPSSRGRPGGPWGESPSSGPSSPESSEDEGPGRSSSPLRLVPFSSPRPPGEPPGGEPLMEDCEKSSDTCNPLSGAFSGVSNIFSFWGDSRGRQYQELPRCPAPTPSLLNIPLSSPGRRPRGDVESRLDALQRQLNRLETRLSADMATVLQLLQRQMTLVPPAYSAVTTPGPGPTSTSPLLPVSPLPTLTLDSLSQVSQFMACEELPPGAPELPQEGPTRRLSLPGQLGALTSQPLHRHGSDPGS
Description for Cytochrome P450 2C9: Inhibition of CYP2C9 (unknown origin)
Description for MDA-MB-468: Antiproliferative activity against human MDA-MB-468 cells incubated for 96 hrs by luminescence method
Description for hERG (KCNH2): Inhibition of human ERG at 10 uM relative to control
Description for physchem: Lipophilicity, logP of compound

With `c1ccc(CNc2ncnc3ccccc23)cc1`, the IC50 in data set [1] was above 10000 nM.
For `NC(=O)c1cccc2c(NCc3ccc4c(c3)OCO4)ncnc12`, in [2], the IC50 is above 10000 nM.
On the same count and under the same terms, next, `NC(=O)c1cccc2c(NCc3ccc4c(c3)OCO4)ccnc12`: above 10000 nM.
For the compound `NC(=O)c1cccc2c(N[C@H](CN3CCCC3)c3ccccc3)ncnc12`, the IC50 in the data set “cells” stood at 9.17 nM.
Take `CNC[C@@H](Nc1ncnc2c(C(N)=O)cccc12)c1cccc(F)c1`: the IC50 on Cytochrome P450 2C9 came out at 3600 nM; with MDA-MB-468, 197 nM; in data set [9] it was 4 nM; in data set [2], 4 nM; in the data set “cells”, 45 nM. For the same compound, in the data set “in vivo [3]”, the clearance was 29 mL/min/kg. Besides, the CL amounted to 29 mL/min in [4], 21 mL/min in data set [6] and 11 mL/min in data set [8]. In addition, the fraction unbound in the data set “in vitro [5]” came to 0.22; in the data set “in vitro [7]” it was 0.15; in the data set “in vitro [12]”, 0.23. In addition, testing at 10 µM against hERG (KCNH2) gave an inhibition of 26%. In [10], the Therm_solubility stood at 64 mg/mL. For the same compound, the Papp A→B in the data set “in vitro [11]” worked out at 16 ×10⁻⁶ cm/s. Also, in “in vivo [13]”, the half-life was 2.1 h. In addition, the bioavailability in “in vivo [14]” worked out at 33%.
With `NC(=O)c1cccc2c(N[C@H](CN3CCC3)c3ccc(F)c(C(F)(F)F)c3)ncnc12`, the IC50 in data set [1] was found to be 2.9 nM; in [9] it was 233 nM; in data set [2], 6 nM; in the data set “cells”, 43 nM.
In the data set “cells”, `CNC[C@H](Nc1ncnc2c(C(N)=O)cccc12)c1cccc(F)c1` registered an IC50 of 702 nM.
`CN(C)C(=O)c1cccc2c(NCc3ccc4c(c3)OCO4)ncnc12`: in [1], the concentration for half-maximal inhibition (IC50) is above 10000 nM.
`NC(=O)c1cccc2c(N[C@H](CN3CCC3)c3cccc(F)c3)ncnc12`: the IC50 in [1] was determined as 2.4 nM; in the data set “cells”, 76 nM.
For `CNC[C@@H](Nc1nc(C(F)(F)F)nc2c(C(N)=O)cccc12)c1cccc(F)c1`, the IC50 in [1] was 30 nM; in data set [9], above 1000 nM; in [2], 400 nM.
Consider `NC(=O)c1cccc2c(NCc3ccc4c(c3)OCO4)nccc12`, for which the IC50 in data set [1] and in data set [2] was above 10000 nM in each case.
Regarding `CNC[C@@H](Nc1nc(C)nc2c(C(N)=O)cccc12)c1cccc(F)c1`, the IC50 in data set [1] was determined as 2 nM; in data set [9], 6 nM; in data set [2], 44 nM; in “cells” it was 72 nM.
As to `NC(=O)c1cccc2c(N[C@H](CN3CCC3)c3cccc(Cl)c3)ncnc12`, the IC50 in data set [1] amounted to 1.3 nM; in data set [2], 14 nM; in the data set “cells” it was 25 nM.
`NC(=O)c1cccc2c(N[C@H](CN3CCC3)c3ccc(Cl)c(F)c3)ncnc12`: the IC50 was found to be 2 nM in data set [1], 75 nM in data set [9], 10 nM in data set [2] and 43 nM in the data set “cells”.
Taken in the same sequence, the figures for `NC(=O)c1cccc2c(N[C@H](CN3CCCC3)c3cccc(F)c3)ncnc12` were 65 nM, 45 nM, 563 nM and above 1000 nM.
In the case of `NC(=O)c1cccc2c(N[C@H](CN3CCC3)c3ccc(F)c(F)c3)ncnc12`, the half-inhibitory concentration (IC50) in data set [1] was 1 nM; in data set [2], 4 nM; in “cells” it was 74 nM.
In turn, `O=C(O)c1cccc2c(NCc3ccc4c(c3)OCO4)ncnc12` displayed an IC50 in data set [1] above 10000 nM.
For `CCc1nc(N[C@H](CNC)c2cccc(F)c2)c2cccc(C(N)=O)c2n1`, the IC50 in data set [1] worked out at 2 nM; in data set [9], 51 nM; in [2], 212 nM; in the data set “cells” it was 183 nM.
In turn, `CNCCC(Nc1ncnc2c(C(N)=O)cccc12)c1ccccc1` (stereo unspecified) gave an IC50 in data set [1] of 160 nM.
Regarding `NC(=O)c1cccc2c(N[C@H](CN3CCC3)c3ccc(C(F)(F)F)cc3)ncnc12`, the 50% inhibitory concentration (IC50) in [1] worked out at 1 nM; in the data set “cells”, 28 nM.
In [1], `COC(=O)c1cccc2c(NCc3ccc4c(c3)OCO4)ncnc12` displayed an IC50 above 10000 nM.
On the same count and under the same terms, with `CNC(=O)c1cccc2c(NCc3ccc4c(c3)OCO4)ncnc12` the figure was above 10000 nM.
As to `NC(=O)c1cccc2c(N[C@H](CN3CCC3)c3ccc(F)cc3)ncnc12`, the IC50 in [1] was found to be 8 nM; in “cells”, 103 nM.
For the compound `NC(=O)c1cccc2c(N[C@H](CN3CCC3)c3cccc(C(F)(F)F)c3)ncnc12`, the results for the IC50 (in data set [2]; in the data set “cells”) were 6 nM and 56 nM, respectively.
On to `NC(=O)c1cccc2c(N[C@H](CN3CCC3)c3ccccc3)ncnc12`, for which the IC50 in [1] is 6.2 nM; in the data set “cells”, 1.6 nM.
Take `CN(Cc1ccccc1)c1ncnc2c(C(N)=O)cccc12`: the IC50 in data set [1] was 973 nM.
For the compound `CNCC(Nc1ncnc2c(C(N)=O)cccc12)c1cccc(F)c1` (racemic), the figures for the IC50 (in data set [9]; in [2]; in the data set “cells”) were 9 nM, 15 nM and 25 nM, respectively.
In the case of `NC(=O)c1cccc2c(N[C@H](CN3CCC3)c3ccc(Cl)c(C(F)(F)F)c3)ncnc12` [RUPITASERTIB], the clearance in “in vivo [3]” is 25 mL/min/kg; in the data set “in vivo [15]”, 15 mL/min/kg; in the data set “in vivo [23]”, 51.7 mL/min/kg; in “in vivo [28]”, 20 mL/min/kg. The CL was determined as 37 mL/min in data set [4], 31 mL/min in data set [6] and 30 mL/min in [8]. Moreover, the fraction unbound in “in vitro [5]” was 0.03; in “in vitro [7]” it was 0.05; in “in vitro [12]”, 0.05. Also, in “in vitro [16]”, the efflux ratio amounted to 1.5. Also, the Vd in “in vivo [17]” came out at 9.88 L/kg; in the data set “in vivo [20]”, 17.6 L/kg; in “in vivo [21]”, 7.43 L/kg; in the data set “in vivo [24]” it was 14.3 L/kg. In addition, the half-life in the data set “in vivo [18]” is 4.1 h; in “in vivo [19]”, 3.9 h; in the data set “in vivo [25]”, 10.1 h; in “in vivo [13]” it was 4.3 h. In addition, the bioavailability in the data set “in vivo [22]” was determined as 44%; in the data set “in vivo [26]”, 36%; in “in vivo [27]”, 15%; in “in vivo [14]” it was 43%. Moreover, the IC50 in [1] worked out at 1.1 nM; in [9], 170 nM; in data set [2], 4 nM; in the data set “cells”, 11 nM. Further, in the data set “in vitro [11]”, the Papp A→B was found to be 12.1 ×10⁻⁶ cm/s. In addition, in “physchem”, the lipophilicity (logP) stood at 2.4.
